Earlier results, collected in patent publication US20190060340A1, “NOVEL AMINOGLYCOSIDES AND USES THEREOF IN THE TREATMENT OF GENETIC DISORDERS” (Technion Research & Development Foundation Limited, priority 2007, published 2019).

Experiments:
[1] = available toxicity data on aminoglycosides; unit inferred; cited from earlier work
stop mutations = settings: literature; cited from earlier work

SMILES: NC[C@H]1O[C@H](O[C@H]2[C@H](O)[C@@H](O[C@H]3O[C@H](CO)[C@@H](O)[C@H](N)[C@H]3O)[C@H](N)C[C@@H]2N)[C@H](N)C[C@@H]1O [tobramycin]
- LD50 [1]: 79 mg/kg
- stop mutations suppression / read-through activity (stop mutations): do not have stop mutations suppression activity
